Measured values from ChEMBL document CHEMBL5543137, “Design and Synthesis of Novel Ultralong-Acting Peptides as EDP-EBP Interaction Inhibitors for Pulmonary Fibrosis Treatment” (J Med Chem, 2024).
Activity calls are given as the source filed them. Starred links: 1 amine or outer side, 2 acyl side, 3 side chain; linkers in the order of their positions; H or OH if unused. Non-standard residues stand in square brackets, D forms with d. Residues, ends and D or L forms follow the SMILES beside them. *: point of attachment. C20 diacid = O=C(O)CCCCCCCCCCCCCCCCCCC(=O)*; γGlu = O=C(O)[C@H](CCC(=O)[*:2])N[*:1]; Iva = CC[C@](C)(N)C(=O)O; PEG2 = NCCOCCOCCC(=O)O

Assays:
[1] = test system: Mus musculus; assay: Antifibrotic activity against BLM-induced C57BL/6 mouse pulmonary fibrosis model assessed as reduction in FN expression at 240 ug/kg/day, sc administered for 2 weeks starting from 7 days post BLM induction and measured after 21 days post BLM induction in presence of GM6001; assay type: functional, organism-based; conditions: dose 240.0 µg/kg/day
[2] = test system: Mus musculus; assay: Antifibrotic activity against BLM-induced C57BL/6 mouse pulmonary fibrosis model assessed as reduction in Ctgf gene expression at 240 ug/kg/day, sc administered for 2 weeks starting from 7 days post BLM induction and measured after 21 days post BLM induction by ScRNA-sequencing analysis; assay type: functional, organism-based; conditions: dose 240.0 µg/kg/day
[3] = Half-life in Sprague-Dawley rat serum at 0.04 mg/kg, sc administered as single dose measured upto 10 days by LC-MS/MS method; assay type: ADME, organism-based; conditions: time < 10 day
[4] = test system: Mus musculus; assay: Antifibrotic activity against BLM-induced C57BL/6 mouse pulmonary fibrosis model assessed as downregulation of Acta2 gene expression in lung tissue at 150 ug/kg, sc administered for 2 weeks starting from 7 days post BLM induction and measured after 21 days post BLM induction by RT-qPCR assay; assay type: functional, organism-based; conditions: dose 150.0 µg/kg
[5] = test system: A549; assay: Antifibrotic activity against BLM-induced human A549 cells assessed as reduction in FN expression at 10 uM after 24 hrs by Western blotting analysis; assay type: functional, cell-based
[6] = Tmax in Sprague-Dawley rat serum at 0.12 mg/kg, sc administered as single dose measured upto 10 days by LC-MS/MS method; assay type: ADME, organism-based; conditions: time < 10 day
[7] = test system: A549; assay: Antifibrotic activity against TNFalpha-induced human A549 cells assessed as downregulation of Fn gene expression level at 10 uM incubated for 24 hrs by RT-qPCR analysis; assay type: functional, cell-based
[8] = Half-life in Sprague-Dawley rat serum at 0.12 mg/kg, sc administered as single dose measured upto 10 days by LC-MS/MS method; assay type: ADME, organism-based; conditions: time < 10 day
[9] = test system: Mus musculus; assay: Antifibrotic activity against BLM-induced C57BL/6 mouse pulmonary fibrosis model assessed as reduction in alpha-SMA expression at 240 ug/kg/day, sc administered for 2 weeks starting from 7 days post BLM induction and measured after 21 days post BLM induction in presence of Clo-Lip; assay type: functional, organism-based; conditions: dose 240.0 µg/kg/day
[10] = test system: Mus musculus; assay: Antifibrotic activity against BLM-induced C57BL/6 mouse pulmonary fibrosis model assessed as reversal of body weight loss at 150 ug/kg, sc administered for 2 weeks starting from 7 days post BLM induction and measured after 21 days post BLM induction; assay type: functional, organism-based; conditions: dose 150.0 µg/kg
[11] = test system: Mus musculus; assay: Antifibrotic activity against BLM-induced C57BL/6 mouse pulmonary fibrosis model assessed as increase in MMP-12 expression at 240 ug/kg/day, sc administered for 2 weeks starting from 7 days post BLM induction and measured after 21 days post BLM induction; assay type: functional, organism-based; conditions: dose 240.0 µg/kg/day
[12] = Binding affinity to EBP (unknown origin) by ITC method; parameters: species or system Homo sapiens
[13] = test system: Mus musculus; assay: Antifibrotic activity against BLM-induced C57BL/6 mouse pulmonary fibrosis model assessed as reduction in Tpm2 gene expression at 240 ug/kg/day, sc administered for 2 weeks starting from 7 days post BLM induction and measured after 21 days post BLM induction by ScRNA-sequencing analysis; assay type: functional, organism-based; conditions: dose 240.0 µg/kg/day
[14] = test system: Mus musculus; assay: Antifibrotic activity against BLM-induced C57BL/6 mouse pulmonary fibrosis model assessed as reduction in ECM1 gene expression at 240 ug/kg/day, sc administered for 2 weeks starting from 7 days post BLM induction and measured after 21 days post BLM induction by ScRNA-sequencing analysis; assay type: functional, organism-based; conditions: dose 240.0 µg/kg/day
[15] = test system: TC-1; assay: Antifibrotic activity against BLM-induced mouse TC-1 cells assessed as reduction in MMP-12 expression at 10 uM after 24 hrs by Western blotting analysis; assay type: functional, cell-based
[16] = test system: A549; assay: Antifibrotic activity against TNFalpha-induced human A549 cells assessed as downregulation of vimentin expression level at 10 uM incubated for 24 hrs by Western blotting analysis; assay type: functional, cell-based
[17] = test system: Mus musculus; assay: Antifibrotic activity against BLM-induced C57BL/6 mouse pulmonary fibrosis model assessed as reduction in Thbs gene expression at 240 ug/kg/day, sc administered for 2 weeks starting from 7 days post BLM induction and measured after 21 days post BLM induction by ScRNA-sequencing analysis; assay type: functional, organism-based; conditions: dose 240.0 µg/kg/day
[18] = test system: Mus musculus; assay: Antifibrotic activity against BLM-induced C57BL/6 mouse pulmonary fibrosis model assessed as increase in serum MMP-12 level at 30 to 240 ug/kg/day, sc administered for 2 weeks starting from 7 days post BLM induction and measured after 21 days post BLM induction; assay type: functional, organism-based; conditions: dose 30-240 µg/kg/day
[19] = species: Homo sapiens; assay: Inhibition of neuraminidase (unknown origin) at 0.005 to 500 uM; conditions: dose 0.005-500 µM
[20] = test system: Mus musculus; assay: Antifibrotic activity against BLM-induced C57BL/6 mouse pulmonary fibrosis model assessed as downregulation of TNFalpha gene expression in lung tissue at 150 ug/kg, sc administered for 2 weeks starting from 7 days post BLM induction and measured after 21 days post BLM induction by RT-qPCR assay; assay type: functional, organism-based; conditions: dose 150.0 µg/kg
[21] = test system: Mus musculus; assay: Antifibrotic activity against BLM-induced C57BL/6 mouse pulmonary fibrosis model assessed as increase in monocytes in BALF at 30 to 240 ug/kg/day, sc administered for 2 weeks starting from 7 days post BLM induction and measured after 21 days post BLM induction; assay type: functional, organism-based; conditions: dose 30-240 µg/kg/day
[22] = test system: Mus musculus; assay: Antifibrotic activity against BLM-induced C57BL/6 mouse pulmonary fibrosis model assessed as reduction in Mgp gene expression at 240 ug/kg/day, sc administered for 2 weeks starting from 7 days post BLM induction and measured after 21 days post BLM induction by ScRNA-sequencing analysis; assay type: functional, organism-based; conditions: dose 240.0 µg/kg/day
[23] = test system: Mus musculus; assay: Antifibrotic activity against BLM-induced C57BL/6 mouse pulmonary fibrosis model assessed as reduction in Vimentin expression at 240 ug/kg/day, sc administered for 2 weeks starting from 7 days post BLM induction and measured after 21 days post BLM induction in presence of Clo-Lip; assay type: functional, organism-based; conditions: dose 240.0 µg/kg/day
[24] = test system: RAW264.7; assay: Effect on cell proliferation in mouse RAW264.7 cells at 10 uM after 24 hrs by flow cytometry analysis; assay type: functional, cell-based
[25] = test system: Mus musculus; assay: Antifibrotic activity against BLM-induced C57BL/6 mouse pulmonary fibrosis model assessed as reduction in TIMP-1 expression at 240 ug/kg/day, sc administered for 2 weeks starting from 7 days post BLM induction and measured after 21 days post BLM induction in presence of Clo-Lip; assay type: functional, organism-based; conditions: dose 240.0 µg/kg/day
[26] = test system: Mus musculus; assay: Antifibrotic activity against BLM-induced C57BL/6 mouse pulmonary fibrosis model assessed as downregulation of Mmp-9 gene expression in lung tissue at 150 ug/kg, sc administered for 2 weeks starting from 7 days post BLM induction and measured after 21 days post BLM induction by RT-qPCR assay; assay type: functional, organism-based; conditions: dose 150.0 µg/kg
[27] = test system: Mus musculus; assay: Antifibrotic activity against BLM-induced C57BL/6 mouse pulmonary fibrosis model assessed as reduction in TIMP-1 expression at 240 ug/kg/day, sc administered for 2 weeks starting from 7 days post BLM induction and measured after 21 days post BLM induction in presence of GM6001; assay type: functional, organism-based; conditions: dose 240.0 µg/kg/day
[28] = test system: Mus musculus; assay: Antifibrotic activity against BLM-induced C57BL/6 mouse pulmonary fibrosis model assessed as reversal of fibroblast activating effect at 240 ug/kg/day, sc administered for 2 weeks starting from 7 days post BLM induction and measured after 21 days post BLM induction; assay type: functional, organism-based; conditions: dose 240.0 µg/kg/day
[29] = test system: Mus musculus; assay: Antifibrotic activity against BLM-induced C57BL/6 mouse pulmonary fibrosis model assessed as reduction in Dcn gene expression at 240 ug/kg/day, sc administered for 2 weeks starting from 7 days post BLM induction and measured after 21 days post BLM induction by ScRNA-sequencing analysis; assay type: functional, organism-based; conditions: dose 240.0 µg/kg/day

CC[C@](C)(NC(=O)[C@@H](NC(=O)CCOCCOCCNC(=O)CCOCCOCCNC(=O)CC[C@H](NC(=O)CCCCCCCCCCCCCCCCCCC(=O)O)C(=O)O)C(C)C)C(=O)NCC(=O)N[C@@H](CO)C(=O)N1CCC[C@H]1C(=O)N[C@@H](CO)C(=O)N[C@@H](C)C(=O)N[C@@H](CCC(N)=O)C(=O)N[C@@H](CCC(=O)O)C(=O)N[C@@H](CCC(=O)O)C(=O)N[C@@H](C)C(=O)N[C@@H](CO)C(=O)N1CCC[C@H]1C(=O)N[C@@H](C)C(N)=O ({C20 diacid-γGlu-PEG2-PEG2}-V[Iva]GSPSAQEEASPA-NH2)
inactive: Activity [1] | Activity [9] | Activity [15] | Activity [23] | Activity [24] | Activity [25] | Activity [27]
24 h: Tmax [6]
117 µM: Kd [12]
33 h: half-life [8]
33.4 h: half-life [3]
active: Activity [2] | Activity [4] | Activity [5] | Activity [7] | Activity [10] | Activity [11] | Activity [13] | Activity [14] | Activity [16] | Activity [17] | Activity [18] | inhibition [19] | Activity [20] | Activity [21] | Activity [22] | Activity [26] | Activity [28] | Activity [29]
